Results published in ChEMBL document CHEMBL4145553, “Design, synthesis, and biological evaluation of novel amide and hydrazide based thioether analogs targeting Histone deacteylase (HDAC) enzymes” (Eur J Med Chem, 2018).
Activity calls are given as the source filed them. The calls are words filed in the database; no cut-off is given here.

Assays:
UACC-257 = experiment: Growth inhibition of human UACC257 cells assessed as cell growth at 10^-8 M incubated for 48 hrs by sulforhodamine B assay relative to control; assay type: functional; settings: UACC-257, 48 h, read-out: Activity
SK-MEL-2 = experiment: Growth inhibition of human SK-MEL-2 cells assessed as cell growth at 10^-7 M incubated for 48 hrs by sulforhodamine B assay relative to control; assay type: functional; settings: SK-MEL-2, 48 h, read-out: Activity
CAKI-1 = experiment: Growth inhibition of human Caki1 cells incubated for 48 hrs by sulforhodamine B assay; assay type: functional; settings: CAKI-1, 48 h
SK-MEL-28 = experiment: Growth inhibition of human SK-MEL-28 cells assessed as cell growth at 10^-8 M incubated for 48 hrs by sulforhodamine B assay relative to control; assay type: functional; settings: SK-MEL-28, 48 h, read-out: Activity
HL-60 [1] = experiment: Induction of apoptosis in human HL60 cells assessed as early apoptotic cells by propidium iodide/Annexin V staining based flow cytometry (reference value: 0.37%); assay type: functional
M14 = experiment: Growth inhibition of human M14 cells assessed as cell growth at 10^-6 M incubated for 48 hrs by sulforhodamine B assay relative to control; assay type: functional; settings: M14, 48 h, read-out: Activity
U-251 = experiment: Growth inhibition of human U251 cells incubated for 48 hrs by sulforhodamine B assay; assay type: functional; settings: U-251, 48 h
LOX IMVI [2] = experiment: Growth inhibition of human LOXIMVI cells assessed as cell growth at 10^-6 M incubated for 48 hrs by sulforhodamine B assay relative to control; assay type: functional; settings: read-out: Activity
HL-60 [3] = experiment: Induction of apoptosis in human HL60 cells assessed as increase in caspase-3 expression by qRT-PCR method; assay type: functional, cell-based
OVCAR-3 = experiment: Growth inhibition of human OVCAR3 cells assessed as cell growth at 10^-5 M incubated for 48 hrs by sulforhodamine B assay relative to control; assay type: functional; settings: OVCAR-3, 48 h, read-out: Activity
HL-60 [4] = experiment: Cell cycle arrest in human HL60 cells assessed as accumulation at G2-phase by propidium iodide staining based flow cytometry (reference value: 6.58%); assay type: functional
HT-29 [5] = experiment: Growth inhibition of human HT-29 cells incubated for 48 hrs by sulforhodamine B assay; assay type: functional; settings: HT-29, 48 h
OVCAR-8 [6] = experiment: Growth inhibition of human OVCAR8 cells assessed as cell growth at 10^-5 M incubated for 48 hrs by sulforhodamine B assay relative to control; assay type: functional; settings: OVCAR-8, 48 h, read-out: Activity
NCI-H460 = experiment: Growth inhibition of human NCI-H460 cells incubated for 48 hrs by sulforhodamine B assay; assay type: functional; settings: NCI-H460, 48 h
HL-60 [7] = experiment: Downregulation of HDAC3 mRNA expression in human HL60 cells by qRT-PCR method; assay type: functional, cell-based
K562 = experiment: Growth inhibition of human K562 cells assessed as cell growth at 10^-6 M incubated for 48 hrs by sulforhodamine B assay relative to control; assay type: functional; settings: K562, 48 h, read-out: Activity
OVCAR-8 [8] = experiment: Growth inhibition of human OVCAR8 cells assessed as cell growth at 10^-7 M incubated for 48 hrs by sulforhodamine B assay relative to control; assay type: functional; settings: OVCAR-8, 48 h, read-out: Activity
OVCAR-8 [9] = experiment: Growth inhibition of human OVCAR8 cells assessed as cell growth at 10^-6 M incubated for 48 hrs by sulforhodamine B assay relative to control; assay type: functional; settings: OVCAR-8, 48 h, read-out: Activity
OVCAR-5 = experiment: Growth inhibition of human OVCAR5 cells assessed as cell growth at 10^-8 M incubated for 48 hrs by sulforhodamine B assay relative to control; assay type: functional; settings: OVCAR-5, 48 h, read-out: Activity
HT-29 [10] = experiment: Growth inhibition of human HT-29 cells assessed as cell growth at 10^-6 M incubated for 48 hrs by sulforhodamine B assay relative to control; assay type: functional; settings: HT-29, 48 h, read-out: Activity
LOX IMVI [11] = experiment: Growth inhibition of human LOXIMVI cells assessed as cell growth at 10^-7 M incubated for 48 hrs by sulforhodamine B assay relative to control; assay type: functional; settings: read-out: Activity
HCT-15 = experiment: Growth inhibition of human HCT15 cells incubated for 48 hrs by sulforhodamine B assay; assay type: functional; settings: HCT-15, 48 h
HCC 2998 = experiment: Growth inhibition of human HCC2998 cells assessed as cell growth at 10^-6 M incubated for 48 hrs by sulforhodamine B assay relative to control; assay type: functional; settings: HCC 2998, 48 h, read-out: Activity
SF-268 = experiment: Growth inhibition of human SF268 cells incubated for 48 hrs by sulforhodamine B assay; assay type: functional; settings: SF-268, 48 h
SW-620 = experiment: Growth inhibition of human SW620 cells assessed as cell growth at 10^-6 M incubated for 48 hrs by sulforhodamine B assay relative to control; assay type: functional; settings: SW-620, 48 h, read-out: Activity
A549 = experiment: Growth inhibition of human A549/ATCC cells incubated for 48 hrs by sulforhodamine B assay; assay type: functional; settings: A549, 48 h
LOX IMVI [12] = experiment: Growth inhibition of human LOXIMVI cells assessed as cell growth at 10^-8 M incubated for 48 hrs by sulforhodamine B assay relative to control; assay type: functional; settings: read-out: Activity
MDA-MB-435 [13] = experiment: Induction of apoptosis in human MDA-MB-435 cells assessed as increase in gammaH2ax expression by qRT-PCR method; assay type: functional, cell-based
MDA-MB-435 [14] = experiment: Downregulation of HDAC8 mRNA expression in human MDA-MB-435 cells by qRT-PCR method; assay type: functional, cell-based
786-0 = experiment: Growth inhibition of human 786-0 cells assessed as cell growth at 10^-4 M incubated for 48 hrs by sulforhodamine B assay relative to control; assay type: functional; settings: 786-0, 48 h, read-out: Activity
[15] = read-out: LC50 (the source's name)
[16] = read-out: pLC50 (the source's name) (converted)

`CCS/C(Nc1ccccc1)=C(\C#N)C(=O)Nc1ccc(OC)cc1` showed a growth at 0.01 µM (UACC-257) of 101%, a growth at 0.1 µM (SK-MEL-2) of 102% and a GI50 (CAKI-1; read-out: GI50) of 3.39 µM. It also gave a CC50 (CAKI-1; [15]) of over 100 µM, a TGI (CAKI-1; read-out: TGI) of over 100 µM and a GI50 (CAKI-1; read-out: pGI50 (converted)) of 3.39 µM. For the same compound, the CC50 (CAKI-1; [16]) was over 100 µM, the TGI (CAKI-1; read-out: pTGI) was over 100 µM and the growth at 0.01 µM (SK-MEL-28) was 101%. The Activity (HL-60 [1]) was 4.89%, the growth at 1 µM (M14) was 72% and the GI50 (U-251; read-out: GI50) was 4.42 µM. For the same compound, the CC50 (U-251; [15]) was over 100 µM, the TGI (U-251; read-out: TGI) was over 100 µM and the GI50 (U-251; read-out: pGI50 (converted)) was 4.47 µM. For the same compound, the CC50 (U-251; [16]) was over 100 µM, the TGI (U-251; read-out: pTGI) was over 100 µM and the growth at 1 µM (LOX IMVI [2]) was 89%. For the same compound, the Activity (HL-60 [3]) was “Active”, the growth at 10 µM (OVCAR-3) was -6% and the Activity (HL-60 [4]) was 16.32%. It also gave a GI50 (HT-29 [5]; read-out: GI50) of 3.47 µM, a CC50 (HT-29 [5]; [15]) of over 100 µM and a TGI (HT-29 [5]; read-out: TGI) of 33.3 µM. The GI50 (HT-29 [5]; read-out: pGI50 (converted)) was 3.47 µM, the CC50 (HT-29 [5]; [16]) was over 100 µM and the TGI (HT-29 [5]; read-out: pTGI (converted)) was 33.1 µM. The growth at 10 µM (OVCAR-8 [6]) was 23%, the GI50 (NCI-H460; read-out: GI50) was 3.14 µM and the LC50 (NCI-H460; read-out: LC50) was over 100 µM. It also gave a TGI (NCI-H460; read-out: TGI) of 34.2 µM, a GI50 (NCI-H460; read-out: pGI50 (converted)) of 3.16 µM and an LC50 (NCI-H460; read-out: pLC50 (converted)) of over 100 µM. For the same compound, the TGI (NCI-H460; read-out: pTGI (converted)) was 33.9 µM, the Activity (HL-60 [7]) was “Active” and the growth at 1 µM (K562) was 29%. For the same compound, the growth at 0.1 µM (OVCAR-8 [8]) was 99%, the growth at 1 µM (OVCAR-8 [9]) was 98% and the growth at 0.01 µM (OVCAR-5) was 104%. It also gave a growth at 1 µM (HT-29 [10]) of 99%, a growth at 0.1 µM (LOX IMVI [11]) of 96% and a GI50 (HCT-15; read-out: GI50) of 1.19 µM. The CC50 (HCT-15; [15]) was over 100 µM, the TGI (HCT-15; read-out: TGI) was over 100 µM and the GI50 (HCT-15; read-out: pGI50 (converted)) was 1.2 µM. For the same compound, the CC50 (HCT-15; [16]) was over 100 µM, the TGI (HCT-15; read-out: pTGI) was over 100 µM and the growth at 1 µM (HCC 2998) was 91%. It also gave a GI50 (SF-268; read-out: GI50) of 6.8 µM, a CC50 (SF-268; [15]) of over 100 µM and a TGI (SF-268; read-out: TGI) of over 100 µM. The GI50 (SF-268; read-out: pGI50 (converted)) was 6.76 µM, the CC50 (SF-268; [16]) was over 100 µM and the TGI (SF-268; read-out: pTGI) was over 100 µM. For the same compound, the growth at 1 µM (SW-620) was 70%, the GI50 (A549; read-out: GI50) was 5.91 µM and the CC50 (A549; [15]) was over 100 µM. It also gave a TGI (A549; read-out: TGI) of over 100 µM, a GI50 (A549; read-out: pGI50 (converted)) of 5.89 µM and a CC50 (A549; [16]) of over 100 µM. For the same compound, the TGI (A549; read-out: pTGI) was over 100 µM, the growth at 0.01 µM (LOX IMVI [12]) was 100% and the Activity (MDA-MB-435 [13]) was “Active”. The Activity (MDA-MB-435 [14]) was “Active” and the growth at 100 µM (786-0) was 6%.
